According to patent publication US11401271B2, “Fused heterocyclic compound, pyrazole-ring-containing fused heterocyclic compound, agricultural composition containing thereof, and method of using the composition” (SOUTH CHINA AGRICULTURAL UNIVERSITY, priority 2017, dated 2022):
Where two headings read alike, the source gives them in different places.

Key:
Assay in all cases: whole plant or invertebrate
Format in all cases: in vivo
Solenopsis invicta = settings: Solenopsis invicta, water test tube poison-feeding
Experimental: (4) Insecticidal Activity on Solenopsis invicta.
As a hymenoptera pests and a social insect, Solenopsis invicta is one of the most destructive invasive organisms. Solenopsis invicta were used as test objects and tested by using a water test tube poison-feeding method.
Operation process: Samples were weighed accurately, and respectively added with 200 μL of dimethyl sulfoxide to prepare 10 g/L mother liquor which was diluted into a concentration of 100 ppm with a mixed aqueous solution containing 0.05% of Tween-80 and 5% of honey during the test. […] The raising test tube was placed in a raising box horizontally, and a small amount of ham sausages were added to the raising test tube as food to raise the Solenopsis invicta at a constant temperature of 25° C. After being treated for 24 hours and 72 hours, a number of live Solenopsis invicta and a number of dead Solenopsis invicta were counted, and a mortality (%) was calculated according to a formula that mortality (%)=(number of live Solenopsis invicta in the control group−number of treated live Solenopsis invicta)/number of live Solenopsis invicta in the control group*100%.

Spodoptera exigua = settings: Spodoptera exigua, read-out: Spodoptera exigua Mortality (%) 500 ppm
Experimental: (2) Insecticidal Activity on 2nd-Instar Larvae of Spodoptera exigua.
Spodoptera exigua is a lepidoptera pest with a chewing mouthpart and is a common vegetable pest. The 2nd-instar larvae of Spodoptera exigua were used as test objects and tested by using a leaf immersion feeding method.
(§1) Operation process: Samples were weighed accurately, and respectively added with 200 μL, of dimethyl sulfoxide to prepare 10 g/L mother liquor which was diluted into a concentration of 500 ppm with an aqueous solution containing 0.05% of Tween-80 during the test. A hole puncher with a diameter of 1.0 cm was used to make cleaned cabbage leaves into leaf discs. The leaf discs were immersed in a liquid medicine, taken out after 5 seconds, air-dried naturally, and transferred into a clean vessel. About 35 2nd -instar larvae of Spodoptera exigua were put into the vessel and fed at a constant temperature of 28° C. Each concentration was repeated 3 times, and an aqueous solution containing 0.05% of Tween-80 was used as a control group. After being treated for 24 hours, a number of dead Spodoptera exigua was counted, and a mortality (%) was calculated according to a formula that mortality (%)=(number of live larvae in the control group −number of treated live larvae)/number of live larvae in the control group * 100%.

Plutella xylostella = settings: Plutella xylostella, read-out: Plutella xylostella Mortality (%) 500 ppm
Experimental: (1) Insecticidal Activity on 2nd-Instar Larvae of Plutella xylostella.
Plutella xylostella (L.) is a lepidoptera pest with a chewing mouthpart and is a common vegetable pest. The 2nd-instar larvae of Plutella xylostella were used as test objects and tested by using a leaf immersion feeding method.
as §1, with “μL” for “μL,”, “2nd-instar” for “2nd -instar”, “Plutella xylostella” for “Spodoptera exigua”, “group−number” for “group −number”, “group*100%.” for “group * 100%.”

Aphis craccivora = settings: Aphis craccivora, read-out: Aphis craccivora Mortality (%) 500 ppm
Experimental: (3) Insecticidal Activity on Aphid Adults.
Aphid is a homoptera pest with a piercing-sucking mouthpart and is a common vegetable pest. Aphis craccivora were taken as test objects and tested by using an impregnation method.
Operation process: Samples were weighed accurately, and respectively added with 200 μL of dimethyl sulfoxide to prepare 10 g/L mother liquor which was diluted into a concentration of 500 ppm with an aqueous solution containing 0.05% of Tween-80 during the test. After the wingless Aphis craccivora adults stably sucked on bean sprouts, the wingless Aphis craccivora adults together with the bean sprouts were immersed into a liquid medicine with a concentration of 500 ppm, taken out after 5 seconds, air-dried naturally, transferred into a clean vessel, and fed at a constant temperature of 23° C. Each concentration was repeated 3 times, and an aqueous solution containing 0.05% of Tween-80 was used as a control group. After being treated for 24 hours, a number of dead Aphis craccivora was counted, and a mortality (%) was calculated according to a formula that mortality (%)=(number of live Aphis craccivora in the control group−number of treated live Aphis craccivora)/number of live Aphis craccivora in the control group*100%.

[1] = 24 h, read-out: Solenopsis invicta Mortality (%) 100 ppm 24 h, 100 ppm, 24 h
[2] = 72 h, read-out: Solenopsis invicta Mortality (%) 100 ppm 72 h, 100 ppm, 72 h

Compound	mortality at 100 ppm (Solenopsis invicta; 24 h, 100 ppm, 24 h, read-out: Solenopsis invicta Mortality (%) 100 ppm 24 h)	mortality at 100 ppm (Solenopsis invicta; 72 h, 100 ppm, 72 h, read-out: Solenopsis invicta Mortality (%) 100 ppm 72 h)	mortality at 500 ppm (Spodoptera exigua; 500 ppm, 2nd-instar larvae, leaf immersion feeding, 24 hours)	mortality at 500 ppm (Plutella xylostella; 500 ppm, 2nd-instar larvae, leaf immersion feeding)	mortality at 500 ppm (Aphis craccivora; 500 ppm, wingless adults, impregnation method, 24 hours)	mortality at 100 ppm (Solenopsis invicta; [1])	mortality at 100 ppm (Solenopsis invicta; [2])	mortality at 500 ppm (Spodoptera exigua; 24 h)	mortality at 500 ppm (Plutella xylostella)	mortality at 500 ppm (Aphis craccivora; 24 h)
COC(=O)Nc1cc2n(n1)-c1cnccc1C(F)(CC(F)(F)F)N2 (stereo not drawn) [Compound A40]	20%	97%	100%	96%	100%					
CNC(=O)Nc1cc2n(n1)-c1cnccc1C(F)(CC(F)(F)F)N2 (stereo not drawn) [Compound A41]						24%	100%	100%	100%	100%
CS(=O)(=O)Nc1cc2n(n1)-c1cnccc1C(F)(CC(F)(F)F)N2 (stereo not drawn) [Compound A42]						44%	100%	100%	100%	100%
C=CC1(CCl)Nc2c(Br)c(C#N)nn2-c2c(Cl)cc(C(F)(F)F)cc21 (stereo not drawn) [Compound C5]						34%	100%	100%	100%	100%
C=CC1(CC(F)(F)F)Nc2c(Br)c(C#N)nn2-c2c(Cl)cc(C(F)(F)F)cc21 (stereo not drawn) [Compound C6]						44%	100%	100%	100%	100%
C=CC1(C(F)(F)F)Nc2c(Br)c(C#N)nn2-c2c(Cl)cc(C(F)(F)F)cc21 (stereo not drawn) [Compound C7]						38%	100%	100%	100%	100%
C=CC1Nc2c(Br)c(C#N)nn2-c2c(Cl)cc(C(F)(F)F)cc21 (stereo not drawn) [Compound C8]						36%	92%	85%	91%	95%
C=CC1(C(F)(F)F)Nc2c(-c3ccccc3C(F)(F)F)c(C#N)nn2-c2c(Cl)cc(C(F)(F)F)cc21 (stereo not drawn) [Compound C11]						46%	100%	100%	100%	100%
C=CC1(C(F)(F)F)Nc2c(-c3cc(C)oc3C)c(C#N)nn2-c2c(Cl)cc(C(F)(F)F)cc21 (stereo not drawn) [Compound C12]						18%	95%	91%	100%	100%
C=CC1Nc2c([S+]([O-])C(F)(F)F)c(C#N)nn2-c2c(Cl)cc(C(F)(F)F)cc21 (stereo not drawn) [Compound C16]						23%	89%	95%	100%	99%
C=CC1(CCl)Nc2c([S+]([O-])CC)c(C#N)nn2-c2c(Cl)cc(C(F)(F)F)cc21 (stereo not drawn) [Compound C17]						15%	68%	89%	88%	100%
C=CC1(CCl)Nc2c([S+](C)[O-])c(C(C)=O)nn2-c2c(Cl)cc(C(F)(F)F)cc21 (stereo not drawn) [Compound C19]						18%	70%	90%	90%	100%
C=CC1(CC#N)Nc2c([S+]([O-])CC)c(C#N)nn2-c2c(Cl)cc(C(F)(F)F)cc21 (stereo not drawn) [Compound C21]						19%	99%	95%	90%	100%
C=CC1(CC#N)Nc2c([S+](C)[O-])c(C#N)nn2-c2c(Cl)cc(C(F)(F)F)cc21 (stereo not drawn) [Compound C22]						20%	70%	94%	99%	89%
C=CC1(CC#N)Nc2c([S+](C)[O-])c(C(C)=O)nn2-c2c(Cl)cc(C(F)(F)F)cc21 (stereo not drawn) [Compound C23]						18%	80%	88%	86%	95%
